Structures can show the parent of a compound that is named as a salt. Non-standard residues stand in square brackets, D forms with d. Residues, ends and D or L forms follow the SMILES beside them. ξ: configuration not given here. *: point of attachment. ξW = NC(Cc1c[nH]c2ccccc12)C(=O)O; NHOH = ON*
Test system: E. coli (ATTC 8739)
Assay: Zone of inhibition test in Petri dish
Type: cell-based
Procedure: Compound A was tested against L-phenylalanine-(S)-2-amino-N-hydroxy-4-(methylthio)butanamide hydrochloride (Example 3) in a side-by-side comparison in a conventional zone of inhibition test. In this test, both compounds were compared at various concentrations against E. coli (ATTC 8739) grown in a Petri dish using the antibiotic kanamycin as a control.

Row | SMILES | strength of zone of inhibition (at 50 μg) | concentration at which a zone of inhibition was shown (Petri dish, kanamycin control, FIG. 1A/1B) [µg] | strength of zone of inhibition compared with cpd. A at 50 μg (at 12.5 μg)
1 | CSCC[C@H](NC(=O)CN)C(=O)NO [Compound A, reference compound] | quite weak | – | –
2 | CSCC[C@H](NC(=O)C(N)Cc1c[nH]c2ccccc12)C(=O)NO (stereo partly drawn) [Example 3, L-Tryptophan-(S)-2-amino-N-hydroxy-4-(methylthio)butanamide hydrochloride] (H-[ξW]-Met-{NHOH}) | – | 12.5 | substantially stronger

From patent US20180340008A1, “ANTIBIOTIC OLIGOPEPTIDE MIMETICS” (priority 2017, published 2018)
